The conditions of data set [1]: PAMPA, study b; cited from earlier work.
The next data set concerns the target T1, human 5-HT6R (Homo sapiens, UniProt P50406).
T1 construct: expressed in transfected cells; host or cells: HEK293
Nature of the data set: Radioligand binding assay, 5-HT6R ([3H]-LSD). Conditions: [3H]-LSD; HEK293 cells stably expressing human 5-HT6R; average of at least two independent experiments. As for the experimental part: The affinity of compounds (1–25) for 5-HT6R was evaluated in the radioligand binding assay in HEK293 cells stably expressing human 5-HT6R. [^3H]-LSD as a radioligand was used. […] All results are collected in Table 1, Table 2 and Table 3.
Radioligand binding assays were used to determine the affinity of the synthesized compounds for human serotonin 5-HT6R, 5-HT2AR, 5-HT7R and dopamine D2R, which were stably expressed in HEK293 cells or CHOk1 cells (5-HT2AR). This was done as described previously.

The target in a further data set is T2, human D2R (Homo sapiens, UniProt P14416).
T2 construct: expressed in transfected cells; host or cells: HEK293
Nature of the data set: Radioligand binding assay, D2R ([3H]-raclopride). Conditions: HEK293 cells stably expressing human D2R. As for the experimental part: (§1) Affinity for serotonin 5-HT2A, 5-HT7 and dopamine D2 receptors (D2R) as protein off-targets was evaluated in the radioligand binding assays. In CHO-K1 cells, it was stably expressed human 5-HT2AR, whereas human 5-HT7R and D2R were stably expressed in HEK293 cells. […] A particularly weak affinity towards this receptor was shown through compounds of series 1 (compounds 1–7) and series 2 (compounds 8–13). […]. Radioligand binding assays were used to determine the affinity of the synthesized compounds for human serotonin 5-HT6R, 5-HT2AR, 5-HT7R and dopamine D2R, which were stably expressed in HEK293 cells or CHOk1 cells (5-HT2AR). This was done as described previously.

A further data set concerns the target T3, human 5-HT7R (Homo sapiens, UniProt P34969).
T3 construct: expressed in transfected cells; host or cells: HEK293
As to the kind of experiment: Radioligand binding assay, 5-HT7R ([3H]-5-CT). Here is the method:
as §1

The target in another data set is T4, human 5-HT2AR (Homo sapiens, UniProt P28223).
T4 construct: expressed in transfected cells; host or cells: CHO-K1
Nature of the data set: Radioligand binding assay, 5-HT2AR ([3H]-ketanserin). Conditions: CHO-K1 cells stably expressing human 5-HT2AR. As for the experimental part:
as §1

Data set [2] in a line: PAMPA assay (BBB penetration, passive transport). The data set is classed as in vitro ADME. Conditions: study a. An excerpt:
This test is a very popular method for assessing BBB penetration via passive transport.

A further data set relates to HepG2 cells. As to the kind of experiment: Hepatotoxicity, MTS assay on HepG2 cells. The data set is classed as cell-based, human. Here is the method:
Some substances can lead to liver damage. To eliminate this risk, hepatotoxicity tests are carried out as early as the pre-clinical development phase. One of the methods commonly used to assess the adverse effect of tested compounds on cell viability is the MTT assay, and the most popular cell lines are HepG2 and HepaRG (the human hepatocellular carcinoma cells). To evaluate the toxic effect of compound 3, the MTS assay (one-step MTT assay variant) was performed on the HepG2 cells. HepG2 cells were incubated with increasing concentrations (0.78–50 µM) of compound 3 for 48 h. After that time, the MTS reagent was added and incubated for 1 h. Next the absorbance was read at 490 nm.
The hepatoma cell line HepG2 (ATCC® HB-8065TM) was used to assess the hepatotoxicity of the compounds according to previously described protocols. The CellTiter 96® AQueous Non-Radioactive Cell Proliferation Assay was purchased from Promega (Madison, WI, USA). Compound 3 was tested in two independent experiments in triplicate at seven concentrations (0.78, 1.56, 3.125, 6.25, 12.5, 25 and 50 µM) for […].

[3] abbreviates: HEK293 cells stably expressing human 5-HT7R.

Each structure is given as a SMILES string. “And” between values parts separate entries of the source, which are not always exact repeats. Equal values may be shown once. Read-outs that look alike come from different tables or passages of the source.

T4 sequence (P28223 whole entry): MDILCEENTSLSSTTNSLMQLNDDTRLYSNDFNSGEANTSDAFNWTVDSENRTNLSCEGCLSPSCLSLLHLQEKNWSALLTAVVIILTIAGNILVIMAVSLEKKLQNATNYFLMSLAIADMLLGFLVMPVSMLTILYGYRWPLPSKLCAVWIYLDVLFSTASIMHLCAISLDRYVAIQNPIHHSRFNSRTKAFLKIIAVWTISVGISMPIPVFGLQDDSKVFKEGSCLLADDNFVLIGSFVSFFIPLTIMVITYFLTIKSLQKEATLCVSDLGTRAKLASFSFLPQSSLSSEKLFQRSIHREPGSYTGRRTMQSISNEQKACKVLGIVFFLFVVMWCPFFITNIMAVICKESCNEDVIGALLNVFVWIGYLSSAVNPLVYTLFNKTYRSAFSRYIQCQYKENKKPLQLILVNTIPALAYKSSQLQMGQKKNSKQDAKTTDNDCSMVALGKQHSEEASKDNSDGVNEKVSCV
T1 sequence (P50406 whole entry): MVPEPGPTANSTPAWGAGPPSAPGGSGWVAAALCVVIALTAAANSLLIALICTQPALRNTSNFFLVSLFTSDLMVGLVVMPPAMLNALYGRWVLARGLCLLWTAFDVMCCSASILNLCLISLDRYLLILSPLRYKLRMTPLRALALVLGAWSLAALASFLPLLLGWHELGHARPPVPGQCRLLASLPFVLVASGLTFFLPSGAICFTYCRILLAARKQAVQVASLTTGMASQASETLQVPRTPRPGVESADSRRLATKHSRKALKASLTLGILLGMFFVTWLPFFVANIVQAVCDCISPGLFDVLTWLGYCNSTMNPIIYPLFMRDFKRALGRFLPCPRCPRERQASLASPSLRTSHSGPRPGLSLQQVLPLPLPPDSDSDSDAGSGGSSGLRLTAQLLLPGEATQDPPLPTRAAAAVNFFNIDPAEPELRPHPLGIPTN
T3 sequence (P34969 whole entry): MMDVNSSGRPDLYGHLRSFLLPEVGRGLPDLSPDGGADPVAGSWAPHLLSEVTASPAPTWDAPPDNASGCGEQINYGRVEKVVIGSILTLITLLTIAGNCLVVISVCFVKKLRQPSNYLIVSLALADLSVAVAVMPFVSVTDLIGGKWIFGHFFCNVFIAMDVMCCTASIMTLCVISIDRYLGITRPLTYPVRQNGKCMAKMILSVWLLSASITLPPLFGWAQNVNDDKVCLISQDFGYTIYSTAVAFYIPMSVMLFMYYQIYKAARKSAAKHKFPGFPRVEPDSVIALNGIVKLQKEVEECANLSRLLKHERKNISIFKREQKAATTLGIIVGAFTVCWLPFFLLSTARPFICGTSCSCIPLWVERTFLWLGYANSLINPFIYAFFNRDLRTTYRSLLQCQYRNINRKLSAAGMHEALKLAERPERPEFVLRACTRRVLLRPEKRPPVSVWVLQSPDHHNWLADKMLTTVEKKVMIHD
T2 sequence (P14416 whole entry): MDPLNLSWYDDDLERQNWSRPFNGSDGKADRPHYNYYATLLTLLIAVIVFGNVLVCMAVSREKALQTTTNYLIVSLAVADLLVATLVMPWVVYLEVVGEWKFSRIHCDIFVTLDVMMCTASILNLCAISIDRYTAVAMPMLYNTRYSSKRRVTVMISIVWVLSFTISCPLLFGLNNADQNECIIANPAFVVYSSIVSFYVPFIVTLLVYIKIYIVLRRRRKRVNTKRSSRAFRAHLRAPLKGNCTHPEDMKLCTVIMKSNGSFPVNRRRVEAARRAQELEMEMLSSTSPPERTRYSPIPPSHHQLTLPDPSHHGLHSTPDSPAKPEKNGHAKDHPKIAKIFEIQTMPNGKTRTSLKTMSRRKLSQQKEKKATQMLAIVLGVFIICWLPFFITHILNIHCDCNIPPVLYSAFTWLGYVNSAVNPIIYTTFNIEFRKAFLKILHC

As for `Cn1c(=O)c2c(ncn2C)n(C)c1=O` [CFN, Caffeine], in data set [1], the “Pe ± SD” value is 15.1 ± 0.4 ×10^−6 cm/s.
Consider `Cc1ccc(C(C)(C)C)c(OCc2nc(N)nc(N3CCN(C)CC3)n2)c1.Cl` [Compound 8, 4-((2-(tert-Butyl)-5-methylphenoxy)methyl)-6-(4-methylpiperazin-1-yl)-1,3,5-triazin-2-amine hydrochloride], for which the melting point was 259 °C (dec.). In addition, the Ki at human 5-HT6R is 6 nM. The compound further yielded a Ki at human D2R of 1570 nM. The affinity at human 5-HT7R (setting [3]), expressed as Ki, was 15100 nM. Further, the Ki at human 5-HT2AR came out at 1240 nM.
The corresponding values for `Cc1ccc(C(C)C)c(OCCCCc2nc(N)nc(N3CCN(C)CC3)n2)c1.Cl` [Compound 19, 4-(4-(2-Isopropyl-5-methylphenoxy)butyl)-6-(4-methylpiperazin-1-yl)-1,3,5-triazin-2-amine hydrochloride] are 239 °C, 142 nM, 3200 nM, 638 nM and 687 nM.
In turn, `Cc1cccc(OCCCCc2nc(N)nc(N3CCN(C)CC3)n2)c1` [Compound 21, 4-(4-Methylpiperazin-1-yl)-6-(4-(m-tolyloxy)butyl)-1,3,5-triazin-2-amine] displayed a melting point of 99 to 101 °C. The compound also displayed a Ki at human 5-HT6R of 559 nM. This compound also registered a Ki on human D2R of 612 nM. The affinity on human 5-HT7R (setting [3]) corresponds to a Ki of 6250 nM. The Ki at human 5-HT2AR is 952 nM.
Turning to `Cc1ccc(C(C)C)c(OCc2nc(N)nc(N3CCN(C)CC3)n2)c1` [MST4, 4-((2-isopropyl-5-methylphenoxy)methyl)-6-(4-methylpiperazin-1-yl)-1,3,5-triazin-2-amine], the “Pe ± SD” value in data set [1] was 12.3 ×10^−6 cm/s and 12.3 ± 2.0 ×10^−6 cm/s.
For `Cc1cccc(OCCCCCc2nc(N)nc(N3CCN(C)CC3)n2)c1` [Compound 24, 4-(4-Methylpiperazin-1-yl)-6-(5-(m-tolyloxy)pentyl) 1,3,5-triazin-2-amine], the melting point lay in the range of 83 to 85 °C. At human 5-HT6R, this compound returned a Ki of 644 nM. This compound also gave a Ki on human D2R of 481 nM. For the same compound, the Ki at human 5-HT7R (setting [3]) came out at 1890 nM. Also, the Ki on human 5-HT2AR is 854 nM.
In turn, `CC(C)c1cccc(OCc2nc(N)nc(N3CCN(C)CC3)n2)c1` [Compound 4, 4-((3-Isopropylphenoxy)methyl)-6-(4-methylpiperazin-1-yl)-1,3,5-triazin-2-amine] showed a melting point of 103 to 105 °C. On human 5-HT6R, this compound returned a Ki of 41 nM. At human D2R, this compound had a Ki of 1790 nM. Moreover, the Ki at human 5-HT7R (setting [3]) was found to be 5730 nM. This compound also returned a Ki on human 5-HT2AR of 2610 nM.
`CN1CCN(c2nc(N)nc(COc3ccccc3C(C)(C)C)n2)CC1` [Compound 3, 4-((2-(tert-Butyl)phenoxy)metyl)-6-(4-methylpiperazin-1-yl)-1,3,5-triazin-2-amine] displayed a melting point of 107 to 109 °C. Also, the “Pe ± SD” value in data set [2] came to 4.7 ×10⁻⁶ cm/s. Further, the Papp in data set [2] (read-out: Pe ± SD) was determined as 4.7 ± 0.2 ×10⁻⁶ cm/s. Further, the Ki at human 5-HT6R was 13 nM. Further, the Ki at human D2R stood at 1620 nM. The “hepatotoxicity (conclusion in words)” value in the data set with HepG2 cells (HepG2, MTS assay) is given as “moderate hepatotoxicity”. For the same compound, in the data set on HepG2 cells (Homo sapiens, HepG2, MTS assay, 0.78–50 µM, 48 h incubation (72 h elsewhere in the source), read-out: IC50 (HepG2 cells' viability)), the IC50 was 46600 nM. The Ki at human 5-HT7R (setting [3]) turned out to be 6340 nM. Further, the Ki at human 5-HT7R (compound 3 and its salts) amounted to 6340 nM. This compound also returned a Ki at human 5-HT2AR of 2180 nM.
Turning to `Cc1ccc(C(C)C)c(OCCCCCCc2nc(N)nc(N3CCN(C)CC3)n2)c1` [Compound 25, 4-(6-(2-Isopropyl-5-methylphenoxy)hexyl)-6-(4-methylpiperazin-1-yl)-1,3,5-triazin-2-amine], the melting point is 59 °C (dec.). Besides, the Ki on human 5-HT6R turned out to be 78 nM. Besides, the Ki at human D2R amounted to 149 nM. The affinity on human 5-HT7R (setting [3]), expressed as Ki, was 1030 nM. This compound also displayed a Ki at human 5-HT2AR of 364 nM.

(Values after paper PMC9919591, “New Triazine Derivatives as Serotonin 5-HT6 Receptor Ligands” (Molecules, 2023).)
